Test results taken from patent US7705203B2, “Benzoate inductible promoters” (Purdue Research Foundation, priority 2002, dated 2010).
Entries after “also recorded” stand apart in the source; their conditions may differ.

Tests used:
BRE = experiment: Activation of BRE fused to GFP in fungal protoplasts (surface receptor test); type: cell-based
Method: While not necessary to understand to practice the invention, a more complicated mechanism of induction may include a surface receptor that binds to benzoate and which then initiates either some kind of signal transduction cascade or the release of a TF that then culminates in the activation of the BPH promoter (FIGS. 12C and D). The hypothesis of a surface receptor was tested by using the p-NH2-benzoate coupled to agarose (as described above) as a non-cleavable external probe. Fungal protoplasts containing the BRE fused to GFP were then prepared, and activation of the BRE (production of the GFP marker) by addition of the agarose-immobilized benzoate derivative to the fungal protoplasts was scored. […] In order to investigate whether the disparity of size between the larger agarose beads and fungal protoplasts may have caused steric problems in binding of the inducer, smaller ligands still incapable of uptake are constructed and utilized to confirm a non-membrane surface location.
The hypothesis of a surface receptor was tested by using the p-NH2-benzoate coupled to agarose (as described above) as a non-cleavable external probe. Fungal protoplasts containing the BRE fused to GFP were then prepared, and activation of the BRE (production of the GFP marker) by addition of the agarose-immobilized benzoate derivative to the fungal protoplasts was scored. […]

GAD1 and GAD11 genes = experiment: RT-PCR expression of GAD1 and GAD11 genes in response to benzoic acid; type: cell-based, A. niger; details: 8 mM benzoic acid for 5 h
Method: Total RNA was extracted from uninduced and benzoic acid-induced A. niger mycelia as described earlier, and approximately 1 μg was used to synthesize first strand cDNAs with the SuperScript First-strand Synthesis System for RT-PCR (Invitrogen, Carlsbad, Calif.). The reaction was carried out in the presence of 0.5 μg of an oligo(dT) primer, 0.5 mM dNTP mix, 5 mM MgCl2, 10 mM DTT, 1× RT buffer (20 mM Tris.HCl pH 8.4, 50 mM KCl), RNAseOUT™ RNAse inhibitor, and 50 U of SuperScript™ II Reverse Transcriptase. Tubes were incubated at 42° C. for 50 min, after which the reaction was terminated at 70° C. for 15 min. RNAse H was added, and tubes were incubated for an additional 20 min at 37° C. Double-stranded cDNAs were amplified by PCR using Red Taq DNA Polymerase (Sigma-Aldrich, St. Louis, Mo.), dNTP's, and gene specific primers: GAD1F (5′-[…]-3′, SEQ ID NO:30), GAD1R (5′-[…]-3′, SEQ ID NO:31), GAD11F (5′-[…]-3′, SEQ ID NO:32), and GAD11R (5′-[…]-3′, SEQ ID NO:33). PCR amplification consisted of a denaturation step at 94° C. for 5 min, followed by 30 cycles, each of denaturation at 94° C. for 45 sec, annealing at 56° C. for 30 sec, and extension at 72° C. for 1 min. A final extension step at 72° C. for 10 min was also included. Amplified cDNAs were separated on a 0.8% agarose gel containing EtBr, and bands were visualized under UV light.

bzuA = experiment: RNA blots of bzuA expression; type: cell-based, A. nidulans; details: benzoic acid in the media
Source text: On the other hand, while N. crassa also contains a bphA homolog, there is no current information available as to its response to benzoic acid.

## O=C(O)c1ccccc1 [benzoic acid]
BRE
  GFP fluorescence in the BRE-GFP transformed line: induced GFP fluorescence
GAD1 and GAD11 genes
  expression of GAD1: expressed constitutively; also recorded: constitutive
  expression of GAD11: slightly downregulated; also recorded: slightly down-regulated
bzuA
  expression of bzuA: upregulated
